Results published in patent publication US20190358182A1, “NOVEL MECHANISM FOR DECREASING OPIOID REWARD” (THE TRUSTEES OF INDIANA UNIVERSITY, priority 2018, published 2019).
“Also recorded” adds a separate entry of the source.

Experiments:
PSD95-nNOS [1] = biological target: T1, PSD95-nNOS (Homo sapiens, UniProt P29475+P78352); details: as described for the control compound; cited from earlier work
Morris Water maze = format: in vivo; details: FIG. 5A
PSD95-nNOS [2] = biological target: T1, PSD95-nNOS; assay: Alphascreen in vitro assay of PSD95-nNOS binding (purified proteins); details: purified nNOS and PSD95 proteins, FIG. 2
Excerpt: Mechanism: We developed an in vitro assay using Alphascreen to establish whether IC87201 and ZL006 directly disrupt interactions between purified nNOS and PSD95 proteins. […] A later group identified ZL006.

rats [3] = assay: Single trial conditioned place preference (CPP); format: in vivo, rat; details: for single trial CPP to the inhibitor alone: acute treatment alone, data not shown; for single trial morphine-induced CPP on acute co-treatment: rats, FIG. 3B, 3C
Excerpt: FIGS. 3A-3C present data from a conditioned place preference study where one chamber was paired with the drug treatment and the other chamber was paired with the vehicle. Animals are subsequently tested in the drug free state to determine if the drug pairing produced reward or aversion in the animals.

PSD95-ERB4 = PSD95-ERB4 (Homo sapiens, UniProt P78352); assay: Alphascreen, interaction of PSD95 with unrelated proteins; format: binding; details: FIG. 2
PSD95-ERB4, sequence (P78352 whole entry): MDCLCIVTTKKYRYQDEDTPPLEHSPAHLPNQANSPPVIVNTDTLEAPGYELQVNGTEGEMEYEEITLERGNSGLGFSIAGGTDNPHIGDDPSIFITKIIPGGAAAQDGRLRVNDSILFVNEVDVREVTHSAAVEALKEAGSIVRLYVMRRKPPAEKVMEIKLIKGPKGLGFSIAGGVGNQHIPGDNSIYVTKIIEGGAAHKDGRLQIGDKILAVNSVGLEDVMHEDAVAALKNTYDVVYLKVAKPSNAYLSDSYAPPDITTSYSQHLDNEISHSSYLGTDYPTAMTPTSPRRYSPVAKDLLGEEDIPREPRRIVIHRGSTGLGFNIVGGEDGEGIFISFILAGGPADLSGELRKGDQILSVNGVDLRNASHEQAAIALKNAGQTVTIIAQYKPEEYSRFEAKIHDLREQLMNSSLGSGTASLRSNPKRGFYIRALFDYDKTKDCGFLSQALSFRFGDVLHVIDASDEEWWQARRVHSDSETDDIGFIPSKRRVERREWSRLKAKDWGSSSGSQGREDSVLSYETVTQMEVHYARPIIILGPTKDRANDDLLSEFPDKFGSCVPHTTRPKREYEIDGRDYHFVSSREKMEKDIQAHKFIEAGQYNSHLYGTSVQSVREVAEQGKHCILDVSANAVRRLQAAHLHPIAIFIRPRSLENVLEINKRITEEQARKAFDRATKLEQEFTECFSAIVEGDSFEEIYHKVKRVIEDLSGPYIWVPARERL

[4] = test system: NMDA-induced NO formation; assay: NMDA-induced NO formation / cGMP levels in primary hippocampal cultures; format: cell-based; details: for NMDA-induced NO formation: data not shown, Smith et al. (2016); for NMDA-stimulated cGMP levels: primary hippocampal cultures, published in Smith et al. (2016)
rats [5] = details: for conditioned place preference to morphine on coadministration: inhibitor 10 mg/kg i.p. × 4 pairings with morphine 6 mg/kg i.p., FIG. 4E, 4F
[6] = cited from earlier work; for pain hypersensitivity / pathological pain: chronic pain models; for nociceptive responding / basal nociceptive thresholds without injury: naïve animals, absence of injury
[7] = Novel object recognition test; format: in vivo; details: data not shown
Rota-rod test = format: in vivo; details: 10-30 mg/kg i.p., FIG. 5B
rats [8] = assay: Radial arm maze task for source and spatial working memory; details: MK801 0.1 or 0.2 mg/kg i.p., IC87201 and ZL006 10 mg/kg i.p., 30 min after injection
Experimental: Rats were trained in a radial arm maze task that tests both source and spatial working memory for these experiments. Data are average of three trials 30 min after drug injection (n=6/group).
Memory impairment can confound CPP studies that depend on learning. Experiments were conducted to determine whether PSD95-nNOS inhibitors impair normal memory functions or show favorable side effect profiles compared to NMDAR antagonist MK801. We used a highly sensitive “source memory” task developed by applicants for use in rats to better mimic types of memory that are actually impaired in humans.

rats [9] = details: cited from earlier work
rats [10] = assay: Morphine self-administration, FR1 schedule (preliminary study); format: in vivo, rat; details: morphine 0.1 mg/kg/injection
nNOS with PSD95 = biological target: T2, nNOS with PSD95 (Mus musculus, UniProt Q62108+Q9Z0J4); details: WT but not nNOS −/− mice; cited from earlier work
T2 construct: host or cells: ischemic cortex of wild-type mice
T2 sequence (Q9Z0J4 whole entry): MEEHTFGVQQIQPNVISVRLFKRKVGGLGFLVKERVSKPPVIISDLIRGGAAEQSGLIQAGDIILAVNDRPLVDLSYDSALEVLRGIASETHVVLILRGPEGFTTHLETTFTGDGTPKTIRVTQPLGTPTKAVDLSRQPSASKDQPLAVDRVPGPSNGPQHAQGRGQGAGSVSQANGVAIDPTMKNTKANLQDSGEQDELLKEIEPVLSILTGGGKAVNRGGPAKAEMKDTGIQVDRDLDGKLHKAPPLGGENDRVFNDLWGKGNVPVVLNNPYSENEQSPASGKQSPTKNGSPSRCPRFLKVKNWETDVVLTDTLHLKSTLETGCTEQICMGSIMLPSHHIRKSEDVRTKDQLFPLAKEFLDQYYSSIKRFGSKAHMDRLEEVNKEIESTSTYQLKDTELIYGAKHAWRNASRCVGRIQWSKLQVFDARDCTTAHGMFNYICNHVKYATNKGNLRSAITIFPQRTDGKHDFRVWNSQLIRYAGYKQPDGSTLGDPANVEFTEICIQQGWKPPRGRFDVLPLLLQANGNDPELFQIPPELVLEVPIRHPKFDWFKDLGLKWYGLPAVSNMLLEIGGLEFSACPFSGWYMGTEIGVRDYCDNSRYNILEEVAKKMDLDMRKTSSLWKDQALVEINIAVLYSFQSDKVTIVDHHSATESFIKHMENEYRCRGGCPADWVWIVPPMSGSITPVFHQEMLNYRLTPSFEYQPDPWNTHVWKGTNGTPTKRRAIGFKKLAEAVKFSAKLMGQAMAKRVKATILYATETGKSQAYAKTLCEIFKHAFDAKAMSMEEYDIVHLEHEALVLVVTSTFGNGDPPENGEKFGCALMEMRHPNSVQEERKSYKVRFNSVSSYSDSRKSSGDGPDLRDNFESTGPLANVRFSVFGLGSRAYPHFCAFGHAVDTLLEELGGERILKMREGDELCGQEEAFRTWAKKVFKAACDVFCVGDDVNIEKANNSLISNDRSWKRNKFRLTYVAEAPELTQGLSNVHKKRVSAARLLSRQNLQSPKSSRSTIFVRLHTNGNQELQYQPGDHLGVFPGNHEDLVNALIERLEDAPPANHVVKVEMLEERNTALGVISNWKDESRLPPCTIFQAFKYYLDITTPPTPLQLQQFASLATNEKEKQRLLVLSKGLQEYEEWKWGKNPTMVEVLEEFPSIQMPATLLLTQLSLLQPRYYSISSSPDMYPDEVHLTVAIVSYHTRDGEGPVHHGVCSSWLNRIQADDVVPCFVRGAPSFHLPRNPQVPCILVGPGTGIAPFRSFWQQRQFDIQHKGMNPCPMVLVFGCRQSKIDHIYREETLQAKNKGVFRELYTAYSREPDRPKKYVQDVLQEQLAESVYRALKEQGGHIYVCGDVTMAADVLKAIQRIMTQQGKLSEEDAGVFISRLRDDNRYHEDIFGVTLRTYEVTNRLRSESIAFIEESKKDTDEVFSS
T2 sequence (Q62108 whole entry): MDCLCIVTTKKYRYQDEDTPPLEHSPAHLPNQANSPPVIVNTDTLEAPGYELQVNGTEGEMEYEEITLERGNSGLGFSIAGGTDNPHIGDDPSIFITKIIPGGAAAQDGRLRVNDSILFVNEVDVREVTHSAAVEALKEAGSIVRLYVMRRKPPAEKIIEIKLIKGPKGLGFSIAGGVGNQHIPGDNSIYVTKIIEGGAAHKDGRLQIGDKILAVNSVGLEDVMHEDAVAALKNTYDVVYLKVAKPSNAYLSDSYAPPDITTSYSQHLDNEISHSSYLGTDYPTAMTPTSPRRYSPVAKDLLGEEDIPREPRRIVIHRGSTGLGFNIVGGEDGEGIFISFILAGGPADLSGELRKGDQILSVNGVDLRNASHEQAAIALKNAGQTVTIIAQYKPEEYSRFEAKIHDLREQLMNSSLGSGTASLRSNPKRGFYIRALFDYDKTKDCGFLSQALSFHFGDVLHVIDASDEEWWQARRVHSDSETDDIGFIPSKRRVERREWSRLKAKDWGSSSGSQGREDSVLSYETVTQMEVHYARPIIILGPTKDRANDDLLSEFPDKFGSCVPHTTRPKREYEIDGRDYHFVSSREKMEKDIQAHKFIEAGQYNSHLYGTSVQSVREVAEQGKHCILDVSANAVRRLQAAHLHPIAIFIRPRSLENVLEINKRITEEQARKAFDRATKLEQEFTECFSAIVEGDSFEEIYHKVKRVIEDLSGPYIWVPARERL

mice = details: wild type (WT) but not nNOS −/− mice; cited from earlier work
DA efflux in NAc shell = assay: Fast-scan cyclic voltammetry of electrically evoked DA in NAc shell; format: in vivo, rat
Excerpt: Design and Rationale: Although FSCV can record spontaneously occurring DA transients in behaving animals, the anesthetized preparation is preferred because it provides reliable and reproducible DA signals independent of behavioral activity. In fact, the fluctuating and intermittent nature of behavior-related DA signals (e.g.,) could confound efforts to establish a first-ever characterization of PSD95-nNOS disrupters on DA dynamics. […] Rats are fixed in a stereotaxic frame, and a carbon-fiber working electrode (6 μm diameter) is lowered into NAc shell. A bipolar stimulating electrode is lowered over the ipsilateral MFB to evoke endogenous DA release. An Ag/AgCl reference is placed on the contralateral cortex. […] Voltammograms are obtained every 100 ms at a scan rate of 400 v/s.
The basic design is to collect baseline DA signals (30 min) evoked by MFB stimulation, administer (ip) test drug(s) or vehicle, and collect post-administration evoked DA signals. […] The effects of each compound (injected i.p.) will be monitored for at least 60 min and tested in separate groups of rats (n=10/group). […] To evoke DA release, we apply a biphasic current (60 Hz, 0.4 s, 300 μA) to the stimulating electrode.
Stimulations at 60 Hz are applied every 2 min to ensure renewal of the readily releasable DA pool. Evoked signals are resolved into respective rates for release and uptake, and pre- and postdrug data are compared. Upon completion of recording, the working electrode is used for postcalibration testing to estimate the in vivo concentration of DA. The analysis used to assess changes in DA release and uptake involves a modification of Michaelis-Menten kinetics. We use mathematical modeling that describes the rate of change in evoked DA concentration as the counteracting balance of release and reuptake: d[DA]/dt=[DA]p*f−Vmax/(Km/[DA]+1), where [DA] is the extracellular DA concentration, [DA]p refers to the extracellular DA concentration evoked per stimulus pulse, Vmax represents the Michaelis-Menten term for maximal uptake rate, Km is the Michaelis-Menten term inversely proportional to transporter affinity, and f is the frequency of the stimulation train. Thus, both Km and Vmax are Michaelis-Menten rate constants that describe uptake (see FIG. 7B). [DA]p describes the rate of stimulated release. Km is held constant at a 0.2 μM, the reported value in striatum for anesthetized rodents. [DA]p and Vmax are determined by the above equation in combination with curve-fitting software that incorporates a simplex minimization algorithm.

T1 sequence (P78352 whole entry): as the sequence (P78352 whole entry) above
T1 sequence (P29475 whole entry): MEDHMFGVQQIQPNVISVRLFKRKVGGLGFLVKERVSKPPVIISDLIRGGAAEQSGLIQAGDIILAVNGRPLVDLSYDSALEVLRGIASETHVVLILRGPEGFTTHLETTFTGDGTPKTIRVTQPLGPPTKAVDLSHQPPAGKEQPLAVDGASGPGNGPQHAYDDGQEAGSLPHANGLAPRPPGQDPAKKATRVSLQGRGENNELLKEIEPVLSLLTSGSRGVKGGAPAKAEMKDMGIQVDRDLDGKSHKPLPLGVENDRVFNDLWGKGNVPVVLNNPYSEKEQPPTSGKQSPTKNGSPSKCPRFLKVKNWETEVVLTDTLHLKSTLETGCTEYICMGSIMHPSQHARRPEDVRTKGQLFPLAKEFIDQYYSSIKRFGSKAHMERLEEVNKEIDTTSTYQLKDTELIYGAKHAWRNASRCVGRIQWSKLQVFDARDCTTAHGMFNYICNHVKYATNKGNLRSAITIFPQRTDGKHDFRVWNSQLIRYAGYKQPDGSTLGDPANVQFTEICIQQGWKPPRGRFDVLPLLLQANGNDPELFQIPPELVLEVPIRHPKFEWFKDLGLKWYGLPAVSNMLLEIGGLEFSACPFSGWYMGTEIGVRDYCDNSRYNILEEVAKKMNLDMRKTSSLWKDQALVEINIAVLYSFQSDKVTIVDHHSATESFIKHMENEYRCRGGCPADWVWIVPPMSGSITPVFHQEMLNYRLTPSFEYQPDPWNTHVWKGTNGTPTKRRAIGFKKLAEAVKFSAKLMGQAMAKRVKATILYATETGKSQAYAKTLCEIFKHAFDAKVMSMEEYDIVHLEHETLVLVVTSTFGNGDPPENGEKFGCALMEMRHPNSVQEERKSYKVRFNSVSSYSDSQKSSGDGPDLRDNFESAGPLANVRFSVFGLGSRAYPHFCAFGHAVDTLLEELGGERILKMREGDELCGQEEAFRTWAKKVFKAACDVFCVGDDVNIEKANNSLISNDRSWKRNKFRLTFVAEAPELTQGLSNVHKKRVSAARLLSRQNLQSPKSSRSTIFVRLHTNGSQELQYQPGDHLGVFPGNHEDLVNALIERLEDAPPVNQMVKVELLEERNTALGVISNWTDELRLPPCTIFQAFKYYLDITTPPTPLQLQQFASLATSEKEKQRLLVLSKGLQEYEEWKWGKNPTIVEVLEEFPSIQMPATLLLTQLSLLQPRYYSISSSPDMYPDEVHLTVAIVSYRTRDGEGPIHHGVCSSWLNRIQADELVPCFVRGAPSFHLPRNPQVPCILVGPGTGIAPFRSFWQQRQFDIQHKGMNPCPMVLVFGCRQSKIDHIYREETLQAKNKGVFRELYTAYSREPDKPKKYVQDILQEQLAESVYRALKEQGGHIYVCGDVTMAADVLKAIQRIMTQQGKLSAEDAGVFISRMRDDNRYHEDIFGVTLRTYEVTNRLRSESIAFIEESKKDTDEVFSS

O=C(O)c1cc(NCc2cc(Cl)cc(Cl)c2O)ccc1O [ZL007, reference compound]
disruption of PSD95-nNOS interactions by the inactive analog (PSD95-nNOS [1]): does not disrupt PSD95-nNOS interactions

Oc1c(Cl)cc(Cl)cc1CNc1ccc2[nH]nnc2c1 [IC87201]
memory in the Morris Water maze (Morris Water maze): do not impair memory | disruption of PSD95-nNOS interaction / binding (PSD95-nNOS [2]): disrupt PSD95-nNOS; also recorded: inhibited PSD95-nNOS binding | single trial CPP to the inhibitor alone (rats [3]): failed to do so | single trial morphine-induced CPP on acute co-treatment (rats [3]; morphine 6 mg/kg i.p.): blocked | disruption of unrelated PSD95-ERB4 interactions (PSD95-ERB4): not unrelated PSD95-ERB4 interactions; also recorded: without disrupting interaction of PSD95 with unrelated proteins | NMDA-induced NO formation [4]: inhibit NMDA-induced NO formation | NMDA-stimulated cGMP levels [4]: suppressed NMDA-stimulated cGMP levels | conditioned place preference to morphine on coadministration (rats [5]): conditioned place preference to morphine was no longer observed | pain hypersensitivity / pathological pain [6]: suppress pain hypersensitivity; also recorded: suppresses pathological pain | nociceptive responding / basal nociceptive thresholds without injury [6]: without altering nociceptive responding; also recorded: without altering basal nociceptive thresholds | memory in the novel object recognition test [7]: did not impair memory | motor performance in the rota-rod test (Rota-rod test): did not impair | source memory (rats [8]): failed to impair spatial memory or source memory | spatial working memory (rats [8]): failed to impair spatial memory or source memory

N=C(N)NCCC[C@H](N)C(=O)O [L-arginine]
acquisition of CPP to morphine (rats [9]; NO donor in the central amygdala): increased acquisition of CPP to morphine

C[C@]12N[C@H](Cc3ccccc31)c1ccccc12 [MK801, reference compound]
morphine-induced CPP (rats [9]; rats, MK801 0.1 mg/kg i.p., doses that do not alter chamber preference): blocked | NMDA-stimulated cGMP levels [4]: suppressed NMDA-stimulated cGMP levels | source memory (rats [8]): eliminated (i.e. did not differ from chance) | spatial working memory (rats [8]): unaffected

CN1CC[C@]23c4c5ccc(O)c4O[C@H]2[C@@H](O)C=C[C@H]3[C@H]1C5 [morphine, reference compound]
active versus inactive lever presses in self-administration (rats [10]; FR1, naïve, sham and neuropathic rats): Active lever presses were greater than inactive presses in all groups | mechanical thresholds (rats [10]; naïve rats, FIG. 6A): did not alter mechanical thresholds | single trial CPP to the drug alone (morphine) (rats [3]; naïve rats, morphine 6 mg/kg i.p., FIG. 3A): robust single trial CPP | conditioned place preference to morphine, repeated pairings (rats [5]; morphine 6 or 10 mg/kg i.p. × 4 pairings, FIG. 4C, 4D): produced robust conditioned place preference

O=C(O)c1ccc(NCc2cc(Cl)cc(Cl)c2O)cc1O [ZL006]
association of nNOS with PSD95 in ischemic cortices (nNOS with PSD95): inhibits the association of nNOS with PSD95 in ischemic cortices | memory in the Morris Water maze (Morris Water maze): do not impair memory | disruption of PSD95-nNOS interaction / binding (PSD95-nNOS [2]): disrupt PSD95-nNOS; also recorded: inhibited PSD95-nNOS binding | single trial CPP to the inhibitor alone (rats [3]): failed to do so | single trial morphine-induced CPP on acute co-treatment (rats [3]; morphine 6 mg/kg i.p.): blocked | disruption of unrelated PSD95-ERB4 interactions (PSD95-ERB4): not unrelated PSD95-ERB4 interactions; also recorded: without disrupting interaction of PSD95 with unrelated proteins | ischemia induced damage (mice): inhibits ischemia induced damage | NMDA-induced NO formation [4]: inhibit NMDA-induced NO formation | NMDA-stimulated cGMP levels [4]: suppressed NMDA-stimulated cGMP levels | conditioned place preference to morphine on coadministration (rats [5]): conditioned place preference to morphine was no longer observed | pain hypersensitivity / pathological pain [6]: suppress pain hypersensitivity | nociceptive responding / basal nociceptive thresholds without injury [6]: without altering nociceptive responding | memory in the novel object recognition test [7]: did not impair memory | motor performance in the rota-rod test (Rota-rod test): did not impair | morphine-induced dopamine efflux on co-administration (DA efflux in NAc shell; ZL006 10 mg/kg i.p. with morphine 6 mg/kg i.p., NAc shell, FIG. 8C): blocked the morphine-induced increase in evoked DA in NAc shell; also recorded: suppresses morphine-induced dopamine efflux in nucleus accumbens shell | amount of DA released per stimulus pulse (DA efflux in NAc shell; ZL006 10 mg/kg i.p., FIG. 7C): does not affect the amount of DA released per stimulus pulse | amount of DA uptake per stimulus pulse (DA efflux in NAc shell; ZL006 10 mg/kg i.p., FIG. 7D): does not affect the amount of DA uptake per stimulus pulse | evoked DA response before and 30 min after drug (DA efflux in NAc shell; ZL006 10 mg/kg i.p., anesthetized rat, FIG. 8B, pilot data, 10 mg/kg): clear decrease in DA signal within 30 min; also recorded: decrease in DA evoked response | evoked dopamine (DA) efflux, drug alone (DA efflux in NAc shell; medial forebrain bundle stimulation, morphine 6 mg/kg i.p., ZL006 10 mg/kg i.p., FIG. 7A, 7B): does not increase dopamine (DA) efflux | source memory (rats [8]): failed to impair spatial memory or source memory | spatial working memory (rats [8]): failed to impair spatial memory or source memory

COC(=O)[C@@H](N)CCCNC(=N)N[N+](=O)[O-] [L-NAME]
L-arginine enhancement of acquisition of CPP to morphine (rats [9]; NOS inhibitor): this enhancement was blocked
